Test results reported in patent US11395489B2, “Microbiocidal picolinamide derivatives” (Syngenta Participations AG, priority 2017, dated 2022).

Tests used:
[1] = tested on: Puccinia recondita f. Sp. Tritici; assay: Puccinia recondita f. sp. tritici / wheat / leaf disc preventative (Brown Rust); format: in vivo; details: foliar, 168 h, 200 ppm in the formulation, compared to untreated, 7-9 days after application, read-out: disease control
[2] = tested on: Glomerella lacenarium (Colletotrichum lacenarium); assay: Glomerella lacenarium (Colletotrichum lacenarium) / liquid culture (Anthracnose); format: cell-based; details: 200 ppm in the formulation, inhibition of growth measured photometrically 3-4 days after application, read-out: disease control
Method: (§1) Glomerella lacenarium (Colletotrichum lacenarium)/Liquid Culture (Anthracnose) Conidia of the fungus from cryogenic storage are directly mixed into nutrient broth (PDB potato dextrose broth). After placing a (DMSO) solution of test compound into a microtiter plate (96-well format), the nutrient broth containing the fungal spores is added. The test plates are incubated at 24° C. and the inhibition of growth is measured photometrically 3-4 days after application.

[3] = tested on: Mycosphaerella arachidis (Cercospora arachidicola); assay: Mycosphaerella arachidis (Cercospora arachidicola) / liquid culture (Early Leaf Spot); format: cell-based; details: 96 h, 200 ppm in the formulation, inhibition of growth determined photometrically 4-5 days after application, read-out: disease control
Method: as §1, with “Mycosphaerella arachidis (Cercospora arachidicola)/Liquid” for “Glomerella lacenarium (Colletotrichum lacenarium)/Liquid”, “(Early Leaf Spot)” for “(Anthracnose)”, “determined” for “measured”, “4-5” for “3-4”

[4] = tested on: Mycosphaerella Raminicola (Septoria tritici); assay: Mycosphaerella Raminicola (Septoria tritici) / liquid culture (Septoria Blotch); format: cell-based; details: 200 ppm in the formulation, inhibition of growth determined photometrically 4 to 5 days after application, read-out: disease control
Method: as §1, with “Mycosphaerella Raminicola (Septoria tritici)/Liquid” for “Glomerella lacenarium (Colletotrichum lacenarium)/Liquid”, “(Septoria Blotch)” for “(Anthracnose)”, “determined” for “measured”, “4 to 5” for “3-4”

[5] = tested on: Monocraphella nivalis (Microdochium nivale); assay: Monocraphella nivalis (Microdochium nivale) / liquid culture (Foot Rot Cereals); format: cell-based; details: 96 h, 200 ppm in the formulation, inhibition of growth determined photometrically 4-5 days after application, read-out: disease control
Method: as §1, with “Monocraphella nivalis (Microdochium nivale)/Liquid” for “Glomerella lacenarium (Colletotrichum lacenarium)/Liquid”, “(Foot Rot Cereals)” for “(Anthracnose)”, “determined” for “measured”, “4-5” for “3-4”

[6] = tested on: Botryotinia fuckeliana (Botrytis cinerea); assay: Botryotinia fuckeliana (Botrytis cinerea) / liquid culture (Gray Mould); format: cell-based; details: 72 h, 200 ppm in the formulation, inhibition of growth determined photometrically 3-4 days after application, read-out: disease control
Method: as §1, with “Botryotinia fuckeliana (Botrytis cinerea)/Liquid” for “Glomerella lacenarium (Colletotrichum lacenarium)/Liquid”, “(Gray Mould)” for “(Anthracnose)”, “(Vogels” for “(PDB potato dextrose”, “determined” for “measured”

[7] = tested on: Magnaporthe risea (Pyricularia Oryzae); assay: whole plant or invertebrate; format: in vivo; details: foliar, read-out: disease control

COc1ccnc(C(=O)N[C@@H](C)C(=O)OC(C)C2(c3ccc(F)cc3)CC2c2ccccc2)c1O (stereo partly drawn) [I.j.010, 1-[1-(4-fluorophenyl)-2-phenyl-cyclopropyl]-ethyl (2S)-2-[(3-hydroxy-4-methoxy-pyridine-2-carbonyl)-amino]propanoate]
≥ 80%: pest or weed control at 200 ppm [1] | inhibition of growth at 200 ppm [2] | inhibition of growth at 200 ppm [3] | inhibition of growth at 200 ppm [4]

COc1ccnc(C(=O)N[C@@H](C)C(=O)OC(C)C2(c3cccc(Br)c3)CC2)c1O (stereo partly drawn) [I.d.006, 1-[1-(3-bromophenyl)-cyclopropyl]ethyl (2S)-2-[(3-hydroxy-4-methoxy-pyridine-2-carbonyl)amino]propanoate]
≥ 80%: pest or weed control at 200 ppm [1] | inhibition of growth at 200 ppm [5] | inhibition of growth at 200 ppm [6] | inhibition of growth at 200 ppm [2] | inhibition of growth at 200 ppm [3] | inhibition of growth at 200 ppm [4]

CCOc1ccc(C2(C(C)OC(=O)[C@H](C)NC(=O)c3nccc(OC)c3O)CC2(F)F)cc1 (stereo partly drawn) [I.u.007, 1-[1-(4-ethoxyphenyl)-2,2-difluorocyclopropyl]-ethyl (2S)-2-[(3-hydroxy-4-methoxy-pyridine-2-carbonyl)amino]propanoate]
≥ 80%: pest or weed control at 200 ppm [1] | inhibition of growth at 200 ppm [5] | inhibition of growth at 200 ppm [6] | pest or weed control at 200 ppm [7] | inhibition of growth at 200 ppm [2] | inhibition of growth at 200 ppm [4]

COc1ccnc(C(=O)N[C@@H](C)C(=O)OC(C)C2(c3cccc4ccccc34)CC2c2ccccc2)c1O (stereo partly drawn) [I.v.010, 1-[1-(1-naphthyl)-2-phenyl-cyclopropyl]-ethyl (2S)-2-[(3-hydroxy-4-methoxy-pyridine-2-carbonyl)-amino]propanoate]
≥ 80%: pest or weed control at 200 ppm [1] | inhibition of growth at 200 ppm [2] | inhibition of growth at 200 ppm [3] | inhibition of growth at 200 ppm [4]

COc1ccnc(C(=O)N[C@@H](C)C(=O)OC(C)C2(c3ccccc3)CC2)c1O (stereo partly drawn) [I.a.006, 1-(1-phenylcyclopropyl)ethyl (2S)-2-[(3-hydroxy-4-methoxy-pyridine-2-carbonyl)amino]propanoate]
≥ 80%: pest or weed control at 200 ppm [1] | inhibition of growth at 200 ppm [5] | inhibition of growth at 200 ppm [6] | pest or weed control at 200 ppm [7] | inhibition of growth at 200 ppm [3] | inhibition of growth at 200 ppm [4]

COc1ccnc(C(=O)N[C@@H](C)C(=O)OC(C)C(C)(C)c2ccc(F)cc2)c1O (stereo partly drawn) [I.j.001, [2-(4-fluorophenyl)-1,2-dimethyl-propyl] (2S)-2-[(3-hydroxy-4-methoxy-pyridine-2-carbonyl)-amino]propanoate]
≥ 80%: pest or weed control at 200 ppm [1] | inhibition of growth at 200 ppm [5] | inhibition of growth at 200 ppm [6] | inhibition of growth at 200 ppm [2] | inhibition of growth at 200 ppm [3] | inhibition of growth at 200 ppm [4]

COc1ccnc(C(=O)N[C@@H](C)C(=O)OC(C)C2(c3cccc4ccccc34)CC2c2ccc(F)cc2)c1O (stereo partly drawn) [I.v.011, 1-[2-(4-fluorophenyl)-1-(1-naphthyl)cyclo-propyl]ethyl (2S)-2-[(3-hydroxy-4-methoxy-pyridine-2-carbonyl)amino]-propanoate]
≥ 80%: pest or weed control at 200 ppm [1] | inhibition of growth at 200 ppm [2] | inhibition of growth at 200 ppm [3] | inhibition of growth at 200 ppm [4]

COc1ccnc(C(=O)N[C@@H](C)C(=O)OC(C)C2(c3ccc(F)cc3)CC2c2ccc(F)cc2)c1O (stereo partly drawn) [I.j.011, 1-[1,2-bis(4-fluoro-phenyl)cyclopropyl]-ethyl (2S)-2-[(3-hydroxy-4-methoxy-pyridine-2-carbonyl)-amino]propanoate]
≥ 80%: pest or weed control at 200 ppm [1] | inhibition of growth at 200 ppm [5] | inhibition of growth at 200 ppm [2] | inhibition of growth at 200 ppm [3] | inhibition of growth at 200 ppm [4]
